What all share (assay type): functional, Homo sapiens
Holding throughout (design): dose or concentration left out as unconfirmed

Experiment [1] has as its system Colon cancer organoid. The experiment is described as follows: Optimized Dual-Glo assay to identify co-culture induced drug vulnerabilities using donated chemical probes and chemogenomics kinase set in O20 CRC organoid and F20 CAF mono and co-culture. […] Cell viability is reported both mono and co-culture models.
The test system of experiment [2] is Colon cancer organoid. The experiment can be described thus: Optimized Dual-Glo assay to identify co-culture induced drug vulnerabilities using donated chemical probes and chemogenomics kinase set in O14 CRC organoid and F14 CAF mono and co-culture. […] Cell viability is reported both mono and co-culture models.
In experiment [3] the test system is Colon cancer organoid. The experiment is described as follows: Optimized Dual-Glo assay to identify co-culture induced drug vulnerabilities using donated chemical probes and chemogenomics kinase set in O06 CRC organoid and F06 CAF mono and co-culture. […] Cell viability is reported both mono and co-culture models.
The mark [4] stands for this setting: Culture type Co-Culture, Transduced with Lucferase2-P2A-EGFP lentivirus.
Setting [5] is: Culture type Co-Culture, Transduced with Renilla-dsRed lentivirus.
Setting [6] is: Culture type Mono-Culture, Transduced with Lucferase2-P2A-EGFP lentivirus.
Setting [7] is: Culture type Mono-Culture, Transduced with Renilla-dsRed lentivirus.

Structures are written as SMILES.

Data on 14 compounds can be found in ChEMBL document CHEMBL5674860, “Optimized Dual-Glo Assay to identify co-culture-induced drug vulnerabilities in 3D CRC models” (2024).

For the compound `CN(C)C/C=C/C(=O)Nc1cc2c(Nc3ccc(F)c(Cl)c3)ncnc2cc1O[C@H]1CCOC1.O=C(O)/C=C\C(=O)O.O=C(O)/C=C\C(=O)O` [AFATINIB DIMALEATE], the “Cell Viability” value in experiment [1] (setting [4]) was 37.5755%; in experiment [1] (setting [5]), 73.123%; in experiment [1] (setting [6]), 10.3381%; in experiment [1] (setting [7]), 31.0858%; in experiment [2] (setting [4]), 29.2387%; in experiment [2] (setting [5]) it was 54.1607%. Also, the “Cell Viability” value in experiment [2] (setting [6]) was 5.719%; in experiment [2] (setting [7]), 44.7132%; in experiment [3] (setting [4]), 26.678%; in experiment [3] (setting [5]), 56.3894%; in experiment [3] (setting [6]), 6.9021%; in experiment [3] (setting [7]) it was 44.0198%.
As for `COc1cc(Nc2ncc3c(n2)-c2ccc(Cl)cc2C(c2c(F)cccc2OC)=NC3)ccc1C(=O)O` [ALISERTIB], the “Cell Viability” value in experiment [1] (setting [4]) is reported as 6.089%; in experiment [1] (setting [5]) it was 322.747%; in experiment [1] (setting [6]), 10.9419%; in experiment [1] (setting [7]), 116.531%; in experiment [2] (setting [4]), 16.1373%; in experiment [2] (setting [5]), 168.728%. Besides, the “Cell Viability” value in experiment [2] (setting [6]) stood at 26.2121%; in experiment [2] (setting [7]) it was 103.392%; in experiment [3] (setting [4]), 20.0499%; in experiment [3] (setting [5]), 286.415%; in experiment [3] (setting [6]) it was 8.923%; in experiment [3] (setting [7]), 120.563%.
Consider `Cc1nc(NC(=O)N2CCC[C@H]2C(N)=O)sc1-c1ccnc(C(C)(C)C(F)(F)F)c1` [ALPELISIB], for which the “Cell Viability” value in experiment [1] (setting [4]) is on record as 70.7946%; in experiment [1] (setting [5]) it was 99.8659%; in experiment [1] (setting [6]) it was 21.7931%; in experiment [1] (setting [7]) it was 78.1697%; in experiment [2] (setting [4]), 44.356%; in experiment [2] (setting [5]), 105.185%. Further, the “Cell Viability” value in experiment [2] (setting [6]) stood at 47.7974%; in experiment [2] (setting [7]), 68.4414%; in experiment [3] (setting [4]), 74.6278%; in experiment [3] (setting [5]), 68.5217%; in experiment [3] (setting [6]), 72.4718%; in experiment [3] (setting [7]), 69.5837%.
In the case of `CC(C)[C@H](C(=O)Nc1ccc(C(=O)NO)cc1)c1ccccc1` [AR-42], the “Cell Viability” value is 13.9159% in experiment [1] (setting [4]); 352.85% in experiment [1] (setting [5]); 21.6913% in experiment [1] (setting [6]); 192.04% in experiment [1] (setting [7]); 19.466% in experiment [2] (setting [4]); 585.967% in experiment [2] (setting [5]). In addition, the “Cell Viability” value in experiment [2] (setting [6]) was determined as 17.1608%; in experiment [2] (setting [7]), 305.591%; in experiment [3] (setting [4]), 8.004%; in experiment [3] (setting [5]), 640.047%; in experiment [3] (setting [6]), 17.2646%; in experiment [3] (setting [7]), 486.211%.
On to `Cc1cnc(-c2cc(Cl)ccc2F)cc1-n1c(=O)n(CC(N)=O)c2ccccc21` [Al11], for which the “Cell Viability” value came out at 99.824% in experiment [1] (setting [4]); 109.542% in experiment [1] (setting [5]); 113.608% in experiment [1] (setting [6]); 109.646% in experiment [1] (setting [7]); 93.5042% in experiment [2] (setting [4]); 89.0527% in experiment [2] (setting [5]). The “Cell Viability” value in experiment [2] (setting [6]) turned out to be 114.229%; in experiment [2] (setting [7]), 91.7467%; in experiment [3] (setting [4]) it was 79.8154%; in experiment [3] (setting [5]), 66.9379%; in experiment [3] (setting [6]) it was 96.9616%; in experiment [3] (setting [7]), 102.254%.
With `Cc1ccccc1Oc1cc(-n2c(=O)cc(C(F)(F)F)[nH]c2=O)c2ccccc2c1Cl` [BAY-069], the “Cell Viability” value is given as 83.88% in experiment [1] (setting [4]); 119.466% in experiment [1] (setting [5]); 87.9837% in experiment [1] (setting [6]); 109.318% in experiment [1] (setting [7]); 114.551% in experiment [2] (setting [4]); 130.948% in experiment [2] (setting [5]). In addition, the “Cell Viability” value was found to be 135.188% in experiment [2] (setting [6]); 102.99% in experiment [2] (setting [7]); 128.819% in experiment [3] (setting [4]); 153.89% in experiment [3] (setting [5]); 114.766% in experiment [3] (setting [6]); 111.149% in experiment [3] (setting [7]).
For the compound `Cn1c(-c2csc(C3CCN(CC4=NC5N=CC=CC5N4)CC3)n2)nc2ccccc21` (stereo not drawn) [BAY-070], the “Cell Viability” value in experiment [1] (setting [4]) was determined as 41.8948%; in experiment [1] (setting [5]), 84.0468%; in experiment [1] (setting [6]) it was 78.1822%; in experiment [1] (setting [7]), 83.7423%; in experiment [2] (setting [4]), 71.6704%; in experiment [2] (setting [5]), 82.4795%. Moreover, the “Cell Viability” value is 106.637% in experiment [2] (setting [6]); 95.1305% in experiment [2] (setting [7]); 29.934% in experiment [3] (setting [4]); 49.5381% in experiment [3] (setting [5]); 49.5158% in experiment [3] (setting [6]); 105.274% in experiment [3] (setting [7]).
With `NS(=O)(=O)c1cc(NC(=O)C2(c3ccccc3Cl)CC2)ccc1Oc1cccc(Cl)c1` [BAY-207], the “Cell Viability” value in experiment [1] (setting [4]) worked out at 177.814%; in experiment [1] (setting [5]), 111.752%; in experiment [1] (setting [6]), 143.896%; in experiment [1] (setting [7]), 130.032%; in experiment [2] (setting [4]) it was 108.195%; in experiment [2] (setting [5]), 102.868%. Further, the “Cell Viability” value came to 157.597% in experiment [2] (setting [6]); 122.925% in experiment [2] (setting [7]); 80.0716% in experiment [3] (setting [4]); 155.512% in experiment [3] (setting [5]); 77.1877% in experiment [3] (setting [6]); 150.163% in experiment [3] (setting [7]).
As to `CNCc1ccccc1-c1csc([C@@H](C)Nc2nc(C)nc3cc(OC)c(OC)cc23)c1` [BAY-293], the “Cell Viability” value worked out at 78.2703% in experiment [1] (setting [4]); 145.24% in experiment [1] (setting [5]); 64.4683% in experiment [1] (setting [6]); 82.7466% in experiment [1] (setting [7]); 46.6211% in experiment [2] (setting [4]); 132.811% in experiment [2] (setting [5]). In addition, the “Cell Viability” value is recorded as 47.2835% in experiment [2] (setting [6]); 107.217% in experiment [2] (setting [7]); 76.9111% in experiment [3] (setting [4]); 225.989% in experiment [3] (setting [5]); 4.78% in experiment [3] (setting [6]); 87.8539% in experiment [3] (setting [7]).
`Cc1cc(NC(=O)c2cccc(S(F)(F)(F)(F)F)c2)cc(-n2ccn3nc(-c4cccnc4)cc23)c1` [BAY-309]: the “Cell Viability” value in experiment [1] (setting [4]) is recorded as 122.672%; in experiment [1] (setting [5]), 127.793%; in experiment [1] (setting [6]), 129.399%; in experiment [1] (setting [7]), 97.9255%; in experiment [2] (setting [4]) it was 98.153%; in experiment [2] (setting [5]) it was 84.8781%. Besides, the “Cell Viability” value in experiment [2] (setting [6]) came out at 155.954%; in experiment [2] (setting [7]), 76.6739%; in experiment [3] (setting [4]) it was 84.4525%; in experiment [3] (setting [5]), 147.367%; in experiment [3] (setting [6]), 49.1708%; in experiment [3] (setting [7]), 77.7093%.
Regarding `O=C(N1CCS(=O)(=O)CC1)N1C[C@H](c2ccc(OC(F)(F)F)cc2)C[C@H](c2nc(C3CC3)no2)C1` [BAY-386], the “Cell Viability” value in experiment [1] (setting [4]) is 61.9652%; in experiment [1] (setting [5]) it was 114.29%; in experiment [1] (setting [6]), 99.9064%; in experiment [1] (setting [7]), 89.9943%; in experiment [2] (setting [4]), 116.117%; in experiment [2] (setting [5]) it was 119.771%. The “Cell Viability” value was 94.8331% in experiment [2] (setting [6]); 98.6833% in experiment [2] (setting [7]); 131.392% in experiment [3] (setting [4]); 144.172% in experiment [3] (setting [5]); 106.882% in experiment [3] (setting [6]); 101.013% in experiment [3] (setting [7]).
With `Cc1c(N2CCNCC2)nc2ccc(Br)cc2c1C(=O)NC[C@H](CCC(=O)O)c1ccccc1Cl` [BAY-403], the “Cell Viability” value in experiment [1] (setting [4]) is given as 119.673%; in experiment [1] (setting [5]) it was 79.2483%; in experiment [1] (setting [6]), 97.0551%; in experiment [1] (setting [7]), 97.643%; in experiment [2] (setting [4]), 128.287%; in experiment [2] (setting [5]) it was 83.5136%. In addition, the “Cell Viability” value in experiment [2] (setting [6]) stood at 111.567%; in experiment [2] (setting [7]), 88.9346%; in experiment [3] (setting [4]), 78.4474%; in experiment [3] (setting [5]), 70.4581%; in experiment [3] (setting [6]) it was 95.2254%; in experiment [3] (setting [7]), 113.122%.
In the case of `CN(C)c1ncnc(-c2ccc3nc(Nc4cc(CN5CCN(C(=O)CC(F)(F)F)CC5)ccn4)[nH]c3c2)c1Cl` [BAY-440], the “Cell Viability” value stood at 123.006% in experiment [1] (setting [4]); 109.622% in experiment [1] (setting [5]); 117.784% in experiment [1] (setting [6]); 126.413% in experiment [1] (setting [7]); 103.771% in experiment [2] (setting [4]); 112.238% in experiment [2] (setting [5]). Also, the “Cell Viability” value in experiment [2] (setting [6]) is reported as 114.79%; in experiment [2] (setting [7]), 113.849%; in experiment [3] (setting [4]), 92.9994%; in experiment [3] (setting [5]) it was 174.385%; in experiment [3] (setting [6]) it was 85.2405%; in experiment [3] (setting [7]) it was 88.7418%.
Take `Cc1noc([C@H]2C[C@@H](c3ccc(C(F)(F)F)cc3)CN(C(=O)N3CCS(=O)(=O)C3)C2)n1` [BAY-448]: the “Cell Viability” value is on record as 115.252% in experiment [1] (setting [4]); 84.5218% in experiment [1] (setting [5]); 119.935% in experiment [1] (setting [6]); 108.615% in experiment [1] (setting [7]); 96.3881% in experiment [2] (setting [4]); 112.512% in experiment [2] (setting [5]). Moreover, the “Cell Viability” value came out at 127.621% in experiment [2] (setting [6]); 97.5385% in experiment [2] (setting [7]); 105.176% in experiment [3] (setting [4]); 127.928% in experiment [3] (setting [5]); 104.997% in experiment [3] (setting [6]); 116.857% in experiment [3] (setting [7]).
